We go through 3 compounds from PMC8131363 (Scientific Reports, 2021).

SMILES strings stand for the structures. Like-named read-outs stand apart in the source and are kept apart here.

Series [1] addresses T1, cCaSR (Felis catus, UniProt C7FF08).
T1 sequence (C7FF08 1-1081): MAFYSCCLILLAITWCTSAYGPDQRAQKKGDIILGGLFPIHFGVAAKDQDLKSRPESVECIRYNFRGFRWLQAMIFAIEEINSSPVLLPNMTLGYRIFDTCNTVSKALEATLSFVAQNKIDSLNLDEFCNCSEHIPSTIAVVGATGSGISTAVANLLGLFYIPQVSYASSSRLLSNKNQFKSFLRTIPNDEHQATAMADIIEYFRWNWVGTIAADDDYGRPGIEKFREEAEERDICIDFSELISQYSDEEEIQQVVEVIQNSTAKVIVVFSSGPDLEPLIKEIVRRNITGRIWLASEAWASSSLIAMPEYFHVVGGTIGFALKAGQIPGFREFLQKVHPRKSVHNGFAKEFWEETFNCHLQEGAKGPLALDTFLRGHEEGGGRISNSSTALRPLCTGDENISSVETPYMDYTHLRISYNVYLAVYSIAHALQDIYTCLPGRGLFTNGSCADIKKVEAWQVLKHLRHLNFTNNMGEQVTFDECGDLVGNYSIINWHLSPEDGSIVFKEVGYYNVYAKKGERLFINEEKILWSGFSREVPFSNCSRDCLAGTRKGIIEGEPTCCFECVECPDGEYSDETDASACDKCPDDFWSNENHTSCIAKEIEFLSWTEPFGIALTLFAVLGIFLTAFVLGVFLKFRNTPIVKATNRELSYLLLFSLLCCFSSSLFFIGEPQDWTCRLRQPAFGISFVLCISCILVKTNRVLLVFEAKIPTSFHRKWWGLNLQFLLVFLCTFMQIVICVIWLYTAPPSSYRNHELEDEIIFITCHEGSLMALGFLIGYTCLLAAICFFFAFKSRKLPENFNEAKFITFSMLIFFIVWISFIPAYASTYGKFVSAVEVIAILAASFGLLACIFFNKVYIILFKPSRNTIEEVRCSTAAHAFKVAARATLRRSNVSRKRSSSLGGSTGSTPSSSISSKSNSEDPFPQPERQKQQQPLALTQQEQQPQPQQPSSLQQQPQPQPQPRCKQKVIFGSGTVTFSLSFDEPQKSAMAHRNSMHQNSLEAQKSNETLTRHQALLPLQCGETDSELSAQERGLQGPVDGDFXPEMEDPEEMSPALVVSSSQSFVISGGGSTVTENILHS
The series can be described thus: cCaSR transiently expressed in HEK293/natClytin, agonist luminescence assay. Type of series: cell-based. To be noted: transiently expressed cCaSR; > 3 mM = maximal response not reached; read-out: cCaSR EC50. On the procedure: The coding sequence of the Felis catus[52] and Homo sapiens[53] CaSR gene was synthesised by GeneArt (Thermo Fisher Scientific). The cat coding sequence was excised from the GeneArt construct and inserted in pcDNA3.1 for constitutive and transient expression or pcDNA5/ TO for inducible expression. For the human sequence the pcDNA6 vector as delivered by GeneArt was used without further sub-cloning.
All transient transfections were performed with Lipofectamine 2000 (Invitrogen) according to the manufacturer’s protocol.

The test system of the next series is human sensory panel. Nature of the series: human sensory panel triangle test. The series is classed as in vivo. As to conditions: humans, CaCl2 8 mM, MgCl2 8 mM; for % correct, triangle test in umami mix: GSH 0.65 mM in MSG/IMP/NaCl mix vs mix blank; for % correct, triangle test in water: GSH 0.65 mM in mineral water vs blank. On the procedure: All solutions were prepared using a commercial mineral water, Highland Spring (Highland Spring group, Blackford, UK) previously tested on our taste sensory panel and found to have the lowest level of inherent taste, thus being the least disruptive to taste tests. All taste-active substances were food-grade or of the highest available purity.
For tests with CaCl2, MgCl2, and GSH, each compound was dissolved directly in water, at 8 mM, 8 mM and 0.65 mM, respectively. Each compound was also tested in a mixture of umami and salty compounds, previously described in kokumi sensory evaluation, composed of 0.02% MSG, 0.02% IMP and 0.07% NaCl.
The human sensory panel experimental protocols were approved by the Waltham Animal Welfare and Ethical Review Board and all methods were carried-out in accordance with all local regulations and guidelines. Informed consent was obtained from all subjects, and all participants were over the legal age of consent. All assessors used for the tests were validated following the process outlined in ISO 8586:2012(E). Briefly, all assessors were evaluated on their capacity to recognise tastants from blank solutions and successfully identify the basic taste modalities presented. The panellists were also assessed on their ability to correctly rank solutions of a tastant in ascending concentration order. The measures for successful validation of panellists were applied to all who completed the assessment.
For the kokumi tastant tests, six tests in all were completed, two with each CaSR agonist chosen CaCl2, MgCl2, or GSH. The number of participating panellists for each test varied between twenty-four and twenty-five. […] No replicate evaluations were done by the same assessor. For each compound, the assessors were presented with […] separate forced choice triangle tests. In the first test, the compound was dissolved in spring water and compared to a blank of pure spring water, in the second the compound was dissolved into the previously described umami mix[8] and compared to a blank of the umami mix. In each separate test, the panellists were presented with the samples in a randomised order to eliminate potential bias. Panellists were presented either two blanks and a sample or two samples and a blank and asked to identify the sample that was different in the triad. Panellists were asked to give a brief description of why the sample chosen was different. If they were unable to detect a difference, the assessors were instructed to choose a sample at random and specify in the description that they were unable to make a difference between the samples[61].
The data was analysed for statistical significance using a standard methodology described in[61]. For this, the number of correct answers were compared to the number of assessors in each test, at the α-risk level chosen for the test. […] As determined by a one tailed test, the minimum number of panellists required to successfully determine difference between samples was thirteen for the chosen α value.
Initially, a contingency table of the number of correct answers and the number of wrong answers was created for each test. Then, Pearson’s chi-square test was then applied to the resulting table, with the probability of a correct answer at random being 1/ 3, while the probability of a wrong answer was 2/ 3.

The target of series [2] is T1, cCaSR.
Series [3] deals with T1, cCaSR. The series can be described thus: cCaSR PAM luminescence assay, double injection with 0.5 mM CaCl2, HEK293/T-REx/natClytin-cCaSR. To be noted: Supplementary Table I, PAM assay, dash = no activity.
Experimental: The cCaSR expression constructs were stably-transfected in the mammalian cell line, HEK293/ T-REx/ natClytin. Transfections were performed by electroporation, following standard methodologies. Stably-transfected target and mock pools were obtained after 2–3 weeks of antibiotic selection, and clones were selected for testing. In order to evaluate the activity of each clone, 10 mM Calcium was injected onto the cells and the resulting luminescence was measured.
All compounds screened on the receptor were analysed in parallel with Calcium, on the HEK293/ T-REx/ natClytin-cCaSR or hCaSR stable or transient cell lines. Prior to the measurements, the cells were incubated with 10 µM of photoprotein substrate, Coelenterazine, prepared in Calcium-free Tyrode’s buffer at 37 °C for 3–4 h. All the data was captured using a FLIPR Tetra (Molecular Devices). A single or double injection protocol was used to capture the data for potential agonists and PAMs, respectively. The compounds tested were all prepared at desired concentration in Calcium-Free Tyrode’s buffer supplemented with 0.5% DMSO. For the activity determination of potential agonists, the single injection protocol was used, with CaCl2 as the positive control for each run. Each compound was injected into specific wells and the luminescence signal was measured for 1 min. for each compound. For potential PAMs, the double injection protocol was used. The first injection was identical to the one described above for potential agonists. A 20 min. resting period followed the first injection and a second injection of 0.5 mM CaCl2 in Calcium-free Tyrode’s buffer was injected to all wells, and the resulting luminescence signal was again measured for 1 min for each compound.
The half maximal effective concentrations (EC50) were identified by nonlinear regression using a variable slope model with the equation Y = Bottom + (X^Hillslope)*(Top–Bottom)/ (X^HillSlope + EC50^HillSlope), where Y is the agonist concentration, Top and Bottom are the plateaus in the same units as Y and HillSlope is the Slope factor or Hill slope. All calculations and plots were done using GraphPad Prism 8. […] In these cases the EC50 was noted as being higher than the maximum concentration used in the assay.
For series [4] the following is noted: GSH at 2.5 mM.
Series [5] has as its target T1, cCaSR. Nature of the series: cell-based.
Where [6] appears, read: read-out: cCaSR activity, agonist assay, stable inducible cCaSR line, at least three wells.
The mark [7] stands for this setting: read-out: cCaSR stable EC50, stably expressed cCaSR, Fig. 6b, > 3 mM = maximal response not reached.

For `[Ca+2].[Cl-].[Cl-]` [Ca^2+, CaCl2], the EC50 at cCaSR [1] is 1.15 mM; at cCaSR [2] (agonist assay, stable inducible cCaSR line, > 0.01 M = maximal response not reached), 1.62 mM; at cCaSR [2] (read-out: EC50 Ago, Supplementary Table I, agonist assay, > 0.01 M = maximal response not reached), 1.62 mM; at cCaSR [2] (setting [6]), 1 to 10 mM; on cCaSR [2] (setting [7]), 1.47 mM. Moreover, the “% correct, triangle test in umami mix” value in the series with human sensory panel turned out to be 36%. In addition, in the series on human sensory panel, the “% correct, triangle test in water” value is recorded as 56%. For the same compound, at cCaSR [3], the “EC50 PAM (M)” value is “-”.
With `[Cl-].[Cl-].[Mg+2]` [Mg^2+, MgCl2], the EC50 is 8.6 mM on cCaSR [1], > 10 mM at cCaSR [2] (setting [6]) and > 3 mM on cCaSR [2] (setting [7]). Also, in the series with human sensory panel, the “% correct, triangle test in umami mix” value stood at 50%. Besides, the “% correct, triangle test in water” value in the series with human sensory panel came out at 50%. On cCaSR [3], the “EC50 PAM (M)” value was “-”.
In the case of `N[C@@H](CCC(=O)N[C@@H](CS)C(=O)NCC(=O)O)C(=O)O` [Glutathione], the EC50 on cCaSR [1] is > 3 mM; on cCaSR [5] (EC50 (M), agonist assay, stable inducible cCaSR line, > 0.01 M = maximal response not reached), 0.00639 M; on cCaSR [5] (EC50 Ago (M), Supplementary Table I, agonist assay, > 0.01 M = maximal response not reached) it was 0.0064 M; on cCaSR [5] (cCaSR activity, agonist assay, stable inducible cCaSR line, at least three wells) it was 0.001 to 0.01 M; at cCaSR [5] (cCaSR stable EC50(mM), stably expressed cCaSR, Fig. 6b, > 3 mM = maximal response not reached), > 0.003 M. Moreover, in the series with human sensory panel, the “% correct, triangle test in umami mix” value is given as 58.3%. For the same compound, in the series on human sensory panel, the “% correct, triangle test in water” value is given as 37.5%. Also, the pH of solution in series [4] stood at 3.48. For the same compound, the “EC50 PAM (M)” value on cCaSR [3] was “-”.
